Experimental data: US20250270289A1, “SEQUENCE-DEFINED POLYMERS WITH ONE OR MORE AZIDES, METHODS OF MAKING, AND METHODS OF USE THEREOF” (Yale University, priority 2021, published 2025)
Like-named read-outs stand apart in the source and are kept apart here. Starred links: 1 amine or outer side, 2 acyl side, 3 side chain; linkers in the order of their positions; H or OH if unused. Non-standard residues stand in square brackets, D forms with d. Residues, ends and D or L forms follow the SMILES beside them. X1 = O=C([C@H](Cc1ccc(NP(=O)(O)O)cc1)N[*:1])[*:2]

Legend:
pAcFRS.1.t1 synthetase = target: T1, pAcFRS.1.t1 synthetase (Methanocaldococcus jannaschii, UniProt Q57834, A167D/D158G/D286R/I159C/L162R/R257G/Y32L); assay: In vitro tRNA charging assay; assay type: biochemical; conditions: purified pAcFRS.1.t1, 1 mM amino acid
T1 construct: His; made in house
Description: The pAcFRS.1.t1 synthetase was His-purified, and stored in 50 mM KCl, 50 mM HEPES-KOH at pH 7.5, 10% glycerol. The cognate tRNA was in vitro transcribed (IVT) from dsDNA template containing a T7 promoter, hammerhead ribozyme and tRNA, as described previously(Fechter et al., 1998). The IVT buffer consists of 40 mM Tris-HCl at pH8.0, 0.01% Triton X, 30 mM MgCl2, 2 mM Spermidine, 1 mM DTT. For a 100 μL reaction, 4 mM riboNTPs (N0466S, NEB), 100U T7 (M0251S, NEB) and 1-2 μM dsDNA template were added. The reaction was incubated at 37° C. for 3 h. Afterwards, the sample was diluted 5× with reaction buffer, and heated to 65C for 1 h to promote hammerhead cleavage. After a phenol:chloroform extraction, the cleaved tRNA was separated from other fragments using a TBE-Urea gel. Finally, the tRNA was refolded by slowly cooling the sample from 95° C. to r.t. At 65° C., MgCl2 was added to a final concentration of 10 mM.
aaRS specificity was measured using in vitro charging. The reaction composition was 150 mM HEPES-KOH at pH 7.5, 10 mM MgCl2, 2.5 mM DTT, 0.2 mg/mL BSA, 2 mM ATP, 1 mM amino acid, 500 nM aaRS and 750 nM tRNA. The reactions were incubated at 37° C. for 30 min. Afterwards, they were quenched using loading buffer (0.1 M sodium acetate pH 5.0, 8 M urea, 0.05% bromophenol blue, 0.05% xylene cyanol FF). The samples were then analyzed on an acid-urea PAGE gel (8 M urea, 0.1 M sodium acetate at pH 5.2) (Varshney et al., 1991), that was prerun in running buffer (0.1 M NaOAc at pH 5.2) for 20 min at 13 W. After sample loading, the gel was run at a constant 13 W for 20 h. The tRNA was visualized with ethidium bromide staining.

Src SH2 domain = Src SH2 domain (Homo sapiens, UniProt P12931); assay: Fluorescence polarization assay, direct binding and competition with FITC-pTyrEEI
Description: They were then induced with 1 mM IPTG and grown overnight. Cells were pelleted prior to freezing at −80° C. Pellets were resuspended in lysis buffer (50 mM Tris, pH 8.0, 500 mM NaCl, 0.5 mM EDTA, 0.5 mM EGTA, 10% glycerol) and then sonicated. Clarified lysate was incubated with Glutathione Sepharose 4B resin, washed (50 mM Tris, pH 8.0, 50 mM NaCl, 10% glycerol) and eluted from resin in elution buffer (20 mM reduced glutathione, 50 mM Tris, pH 8.0, 50 mM NaCl, 10% glycerol, pH 8.0). […] Protein was stored at −80° C. […] Kd was established using one-site binding model in GraphPad Prism version 7 for Mac (GraphPad Software, La Jolla, CA, USA). Unlabeled peptides were diluted to 100 μM in assay buffer. […] A full-dissociation control was established with 10 nM peptide in assay buffer. […] EC50 for percent inhibition was estimated by plotting log10[agonist] vs. response and fitting a four-parameter variable slope fit in GraphPad Prism.

[1] = Reduction of pAzF to pAF under purification pH and temperatures (HRMS); assay type: physicochemical; conditions: pH 6.6, 7.2, 7.9; 4, 20, 34 or 80° C.
Excerpt: High-resolution mass spectrometry (HRMS) data was collected using an Agilent iFunnel 6550 Quadrupole Time-Of-Flight (QTOF) MS with an electrospray ionization (ESI) source, coupled to an Agilent Infinity 1290 ultra-high-performance liquid chromatography (UHPLC) system with an Agilent Eclipse Plus C18 1.8 μm, 4.6×50 mm column. Solvents used were (solvent A) water 0.1% formic acid and (solvent B) CH3CN 0.1% formic acid. Mass spectra were gathered using Dual Agilent Jet Stream (AJS) ESI in positive mode. The mass range was set from 110 to 1700 m/z with a scan speed of 3 scan/second. The capillary and nozzle voltages were set to 5500 and 2000 V, respectively. […] MS data were acquired with MassHunter Workstation Data Acquistion (Version B.06.01, Agilent Technologies) and analyzed using MassHunter Qualitative Analysis (Version B.07.00, Agilent Technologies). Protein quantification was performed using peptide standards with the same sequence as the digested peptides, or based on calibration curves produced using dilutions series of peptide(1TAG)-GFP.
Experiments were designed to assess if reduction of pAzF residues occurs during protein purification or MS analysis. Experiments evaluated if pAzF is reduced over a range of pH (6.6, 7.2, 7.9) and temperatures (4, 20, 34, or 80° C.) used during sample purification, and found minimal (<1%) reduction to pAF under all conditions. […]

T1 sequence (Q57834 whole entry Y32L/D158G/I159C/L162R/A167D/R257G/D286R): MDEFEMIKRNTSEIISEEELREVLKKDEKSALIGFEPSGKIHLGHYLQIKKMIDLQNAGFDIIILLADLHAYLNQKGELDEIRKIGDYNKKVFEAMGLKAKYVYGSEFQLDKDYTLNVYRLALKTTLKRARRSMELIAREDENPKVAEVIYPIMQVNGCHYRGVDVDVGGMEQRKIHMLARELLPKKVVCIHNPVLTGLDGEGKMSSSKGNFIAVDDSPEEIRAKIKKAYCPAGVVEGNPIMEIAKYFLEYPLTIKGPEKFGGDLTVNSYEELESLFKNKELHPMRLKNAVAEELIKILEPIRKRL

N[C@@H](Cc1ccc(O)cc1)C(=O)O [tyrosine]
charging onto the cognate tRNA (pAcFRS.1.t1 synthetase): no charging

Nc1ccc(C[C@H](N)C(=O)O)cc1 [pAF, para-amino-phenylalanine]
charging onto the cognate tRNA (pAcFRS.1.t1 synthetase): no charging

EPQYEEIPIYL [Tyr peptide, reference compound]
EC50 (Src SH2 domain; competition with FITC-labeled pTyr peptide): No increase in unbound FITC-pTyr peptide

CC[C@H](C)[C@H](NC(=O)[C@@H]1CCCN1C(=O)[C@@H](NC(=O)[C@H](CCC(=O)O)NC(=O)[C@H](CCC(=O)O)NC(=O)[C@H](Cc1ccc(NP(=O)(O)O)cc1)NC(=O)[C@H](CCC(N)=O)NC(=O)[C@@H]1CCCN1C(=O)[C@@H](N)CCC(=O)O)[C@@H](C)CC)C(=O)N[C@@H](Cc1ccc(O)cc1)C(=O)N[C@@H](CC(C)C)C(=O)O [pnY peptide] (H-EPQ[X1]EEIPIYL-OH; N-terminus and C-terminus assumed)
EC50 (Src SH2 domain): 12.8 µM
Decrease in binding affinity with SH2 (Src SH2 domain; pnY peptide EC50 compared with […], Src SH2): 17 fold

[N-]=[N+]=Nc1ccc(C[C@H](N)C(=O)O)cc1 [pAzF, para-azido-phenylalanine]
charging onto the cognate tRNA (pAcFRS.1.t1 synthetase): charged
reduction to pAF [1]: < 1%
